Data: PMC12040169 (PLOS Biology, 2025)

Test: in vitro
Settings: human, hela cells, % viability

Structure (SMILES) | viability at 28.5 h, 10 µM
N#Cc1ccc(CN2CCOC3(CCN(C(=O)OCc4ccccc4)CC3)C2)cc1 [CBK161103T] | 99.1%
CN(CC(N)=O)c1nc(-c2cccnc2)nc2ccccc12 [CBK306346] | 87%
Cc1nn(C)c2ncc(S(=O)(=O)NC(C)c3cccc(F)c3)cc12 (stereo not shown) [CBK305948] | 94.9%
CN(CCO)C(=O)c1cn2cc(-c3cccs3)n(CC3CC3)c(=O)c2n1 [CBK307370] | 92.8%
CCc1ccc(S(=O)(=O)N2CCN(C(c3ccccc3)c3ccccc3)CC2)cc1 [CBK093948] | 98.6%
CCOc1cc(C=Cc2cc(C(=O)O)c3ccccc3n2)ccc1OC(F)F [CBK296952] | 86.3%
CN(C)CCN(CCc1ccccc1)Cc1ccncc1 [CBK283145] | 91.5%
O=C(NC1CCN(CC(F)(F)F)CC1)c1cnc(-c2ccccc2)s1 [CBK305474] | 98.4%
COc1ccc(CCCN2CCC(C(=O)NC(=O)Nc3cc(OC)c(OC)c(OC)c3)CC2)cc1 [CBK034855] | 86.3%
CC(=O)Nc1cccc(CN(C)C(CCO)c2ccccc2)c1 (stereo not shown) [CBK305127] | 95.8%
CON=Cc1c[nH]c2ccccc12 [CBK168628] | 93.7%
COC(=O)c1ccsc1NS(=O)(=O)c1ccc(F)cc1 [CBK039060] | 89.7%
COc1cccc(NC(=O)CC(CN2CCN(CCC#N)CC2)C(=O)O)c1 (stereo not shown) [CBK286801] | 86.1%
O=c1[nH]c(=O)c2cc(S(=O)(=O)NC(c3ccccc3)c3ccccc3)ccc2[nH]1 [CBK286375] | 89.4%
Cc1ccc(OCC(=O)Nc2ccc(N3CCN(Cc4ccccc4)CC3)cc2)cc1C [CBK266085] | 101%
CN1CCN(S(=O)(=O)c2ccccc2Br)CC1 [CBK062435] | 93.2%
O=C(COc1ccc(F)cc1)N1CCC2(CCNC2)C1 (stereo not shown) [CBK156691C] | 92.5%
NCCC(O)(P(=O)(O)O)P(=O)(O)O [CBK260913] | 97.6%
COc1cc(-c2nccnc2NCc2ccccn2)cc(OC)c1OC [CBK036936] | 96.8%
O=C1Nc2ccc(C(=O)NCC(O)CO)cc2/C1=C/c1c[nH]c2ncccc12 (stereo not shown) [CBK115363C] | 95.3%
COc1ccc(C)cc1S(=O)(=O)n1ccc2c(CN3CCC(N)CC3)cccc21 [CBK113312T] | 78.6%
CN1CCN(CC(=O)Nc2ccc(Cl)cc2C(=O)c2ccccc2)CC1 [CBK266246] | 91.8%

Structure (SMILES) | viability at 28.5 h, 10 µM
CCOC(=O)c1cnn(C2CCCN(Cc3cnnn3C)C2)c1 (stereo not shown) [CBK305122] | 98.5%
CC1(CNC(=O)c2ccc(N3CCCCC3)cc2)COC1 [CBK281746] | 105%
O=C(CCSc1nc(-c2ccco2)cc(C(F)(F)F)n1)N1CCN(c2ccccn2)CC1 [CBK267626] | 99%
COc1ccc(CCNC(=O)c2cnc(-c3ccc(Cl)cc3)c(-c3cccc(CNC(C)=O)c3)c2)cc1OC [CBK164413] | 95%
COc1ccccc1-c1noc(CCCC(=O)Nc2cccc(C(F)(F)F)c2)n1 [CBK268794] | 96.3%
CS(=O)(=O)Nc1nccnc1OC1CCN(CCCO)CC1 [CBK084275] | 90.9%
COCCn1c(CN2CCOCC2)nc2c1c(=O)[nH]c(=O)n2C [CBK269890] | 100%
N#CCCCCn1cc(NC(=O)NCCc2cccs2)cn1 [CBK044855] | 100%
O=S(=O)(CCc1ccccc1)N1CCCn2nc(-c3ccncc3)cc2C1 [CBK288608] | 87.3%
Cc1ccc(S(=O)(=O)N2CCN(Cc3cc(Br)ccc3O)CC2)cc1 [CBK264242] | 98.5%
CCn1cc(CN2CCC(O)(c3ccc(C)cc3)CC2)cn1 [CBK282735] | 85.7%
Cc1nn(CCS(C)(=O)=O)c(C)c1CN1CCOC(c2ccccc2)C1 (stereo not shown) [CBK306162] | 80.4%
CS(=O)(=O)N1CC2(CCN(CCc3ccccc3)CC2)c2ccccc21 [CBK084015] | 88.3%
O=C(c1ccccc1Br)N1CCCCC1 [CBK028504] | 87.6%
Clc1ccc(COc2cncc(OC3CCN(CC4CC4)C3)n2)cc1Cl (stereo not shown) [CBK084443] | 86.5%
COc1ccc(NC(=O)Cn2cnc3c2c(=O)n(C)c(=O)n3C)cc1Cl [CBK134216] | 95.9%
COc1cccc(C(NC(=O)C2CCN(Cc3cccs3)CC2)c2cnccn2)c1 (stereo not shown) [CBK148572] | 106%
CC(C)(C)OC(=O)NCc1ccc(-c2cc(NC3CCCCC3)ncn2)cc1 [CBK090898] | 98.5%
O=C(O)C1Nc2ccc(Br)cc2C2C=CCC12 (stereo not shown) [CBK026482] | 92.1%
COc1ncc(-c2cncc(Nc3cccc(C#N)c3)n2)c(OC)n1 [CBK066022] | 89.7%
CN(C)C(=O)CN1CCN(CCc2ccccc2)CC1 [CBK126455] | 98.8%
O=C(NCc1cccc(OCC2CCCO2)c1)C1C2CCCCC21 (stereo not shown) [CBK281517] | 94.3%

Structure (SMILES) | viability at 28.5 h, 10 µM
O=C(Nc1cccnc1)c1cc2cc(F)ccc2[nH]1 [CBK107272] | 93.2%
CC[C@H]1CN(C(=O)c2ccnc(Cl)c2)CC[C@H]1CC(=O)O [CBK289139] | 92%
COc1ccccc1C(=O)N1CCC(Cc2ccc(-c3ccccc3)cc2)(C(N)=O)CC1 [CBK285774] | 100%
CC(C)NC(=O)C1CN(Cc2ccccc2)CC12CCc1ccccc1C2NC(=O)CN (stereo not shown) [CBK283093] | 79.4%
O=C(O)c1cc(NC(=O)C2CCCO2)ccc1O (stereo not shown) [CBK269815] | 99%
CCc1cc(=O)oc2cc(OCC(=O)O)c(Cl)cc12 [CBK265182] | 93.9%
O=C(NC1CCCCC1)O[C@@H]1CO[C@H]2[C@@H]1OC[C@@H]2Nc1nccc(-c2cccs2)n1 [CBK289514] | 87.4%
O=C(c1ccco1)N1CCN(c2cc(-c3cc4ccccc4o3)ncn2)CC1 [CBK091114] | 102%
Cc1c(S(=O)(=O)N2CCN(C)CC2)sc2ccc(C(C)C)cc12 [CBK170362] | 90.1%
COc1cccc(C(=O)N2CCCC2c2cc3cccnc3[nH]2)c1 (stereo not shown) [CBK285082] | 96.4%
Cc1ccc(S(=O)(=O)NC(=O)N(Cc2ccccc2)Cc2ccco2)cc1 [CBK269524] | 93%
Cc1nccc(C(=O)N2CCC3(C/C=C/C[C@H]4COCC[C@H]4NC(=O)CNC3=O)CC2)n1 [CBK292072] | 103%
O=C(Cc1ccc(Cl)c(Cl)c1)N1CCCC2(CCN(Cc3ccccc3)C2)C1 (stereo not shown) [CBK136872] | 91.9%
O=S(=O)(c1ccc(Cl)cc1)N1CCN(CC(O)Cn2c3ccccc3c3ccccc32)CC1 (stereo not shown) [CBK264383] | 105%
Fc1ccc(-c2cn3ccnc3c(Nc3cccc(OC(F)(F)C(F)F)c3)n2)cc1Cl [CBK037265] | 98.1%
O=C(NC(=S)Nc1ccc2[nH]c(=O)[nH]c2c1)c1ccc(F)cc1 [CBK263986] | 89.3%
CC(C)c1nccn1CC(=O)N(C)C(C)c1ccc(F)c(F)c1 (stereo not shown) [CBK306443] | 94.5%
CCN(CC)C(=O)c1ccsc1NS(=O)(=O)c1cc(Br)ccc1OC [CBK042327] | 103%
O=C(NCCCc1ccc(F)cc1)c1cccc(-n2cnnc2)c1 [CBK282713] | 102%
Cc1ccc2nc(O)cc(C(=O)OCC(=O)c3cccc([N+](=O)[O-])c3)c2c1 [CBK265115] | 94.1%
